Laboratory results reported in publication PMC5858870 (Environmental pollution (Barking, Essex : 1987), 2018).
Where two headings read alike, the source gives them in different places.

What was measured:
[1] = for Whole-body conc D 50 High / Whole-body conc D 50 Med: day 50 (after depuration), wet weight, < = reporting limit; for Whole-body conc D 50 Med: medium dose
fish = conditions: ref Kim et al. (2007); cited from earlier work
male fathead minnow = conditions: exposed to 40,000 ng/L (40 ng/mL); ref Niemuth and Klaper, 2015; cited from earlier work
[2] = Apparent half-life during depuration phase; conditions: whole-body, apparent first order
[3] = in vivo; cited from earlier work
[4] = system: mitochondrial respiration; conditions: ref Schnellmann et al., 1990; Shim et al., 2016; cited from earlier work
carp = carp (Catla catla) exposed; ref Muthuviveganandavel et al., 2013; cited from earlier work
rainbow trout = conditions: relatively low concentrations in the range of ng/mL; ref Ashfield et al., 1998; cited from earlier work
[5] = day 32, high dose, nominal ratio 10×
[6] = day 32, low dose, nominal ratio 0.3×
[7] = day 32, medium dose, nominal ratio 1×
[8] = Chinook salmon (Oncorhynchus tshawytscha), juvenile, in vivo, 32 d
[9] = Chinook salmon (Oncorhynchus tshawytscha), juvenile, in vivo, 50 d

| Molecule | WB conc. factor (lab / field) D 32 High [1, 5] | WB conc. factor (lab / field) D 32 Low [1, 6] | WB conc. factor (lab / field) D 32 Med [1, 7] | WB conc. factor (lab / field) D 50 Med ([1]; day 50, medium dose) | further results |
| --- | --- | --- | --- | --- | --- |
| CN(C)CCC=C1c2ccccc2CCc2ccccc21 [Amitriptyline, reference compound] | 1.41 | 0.19 |  |  |  |
| CCOC(=O)C1=C(COCCN)NC(C)=C(C(=O)OC)C1c1ccccc1Cl (centres unmarked) [Amlodipine, reference compound] | 19.5 | 1.15 | 1.12 |  |  |
| CC[C@H]1OC(=O)[C@H](C)[C@@H](O[C@H]2C[C@@](C)(OC)[C@@H](O)[C@H](C)O2)[C@H](C)[C@@H](O[C@@H]2O[C@H](C)C[C@H](N(C)C)[C@H]2O)[C@](C)(O)C[C@@H](C)CN(C)[C@H](C)[C@@H](O)[C@]1(C)O [Azithromycin, reference compound] | 17.1 | 1.67 | 1.03 | 1.42 |  |
| CNCCN1C(=O)[C@H](OC(C)=O)[C@H](c2ccc(OC)cc2)Sc2ccccc21 [Desmethyl-diltiazem] | 108 | 4.67 | 9.00 | 9.6 | Whole-body conc D 50 High [1]: 119 ng/g; Whole-body conc D 50 Med [1]: 14.4 ng/g |
| COc1ccc([C@@H]2Sc3ccccc3N(CCN(C)C)C(=O)[C@@H]2OC(C)=O)cc1 [Diltiazem, reference compound] | 63.8 | 10.7 | 6.56 | 2.37 | 96h LC50 (fish): 15 µg/mL |
| CN(C)CCOC(c1ccccc1)c1ccccc1 [Diphen hydramine, reference compound] | 5.37 | 0.67 | 0.43 |  |  |
| CNCCC(Oc1ccc(C(F)(F)F)cc1)c1ccccc1 (centres unmarked) [Fluoxetine, reference compound] | 4.00 | 0.29 | 0.21 | 0.19 |  |
| Cc1ccc(C)c(OCCCC(C)(C)C(=O)O)c1 [Gemfibrozil, reference compound] | 2.57 |  |  |  |  |
| CN(C)C(=N)N=C(N)N [Metformin, reference compound] | 1.42 | 0.16 |  |  | Growth in male fathead minnow (male fathead minnow): reduced growth |
| Clc1ccc(COC(Cn2ccnc2)c2ccc(Cl)cc2Cl)c(Cl)c1 (centres unmarked) [Miconazole, reference compound] | 7.39 | 0.64 |  |  |  |
| NCCC(Oc1ccc(C(F)(F)F)cc1)c1ccccc1 (centres unmarked) [Norfluoxetine] | 5.59 | 0.31 | 0.38 | 0.52 |  |
| O=C(O)C(F)(F)C(F)(F)C(F)(F)C(F)(F)C(F)(F)C(F)(F)C(F)(F)C(F)(F)C(F)(F)F [PFDA] | 39.9 | 1.68 | 2.76 | 2.63 | Whole-body conc D 50 High [1]: 14.4 ng/g; Whole-body conc D 50 Med [1]: 2.05 ng/g; Half life High [2]: 16.2 days; Half life Med ([2]; medium dose): 262 days |
| O=C(O)C(F)(F)C(F)(F)C(F)(F)C(F)(F)C(F)(F)F [PFHxA] |  |  |  |  | Whole-body conc D 50 High [1]: 0.82 ng/g; Whole-body conc D 50 Med [1]: 0.49 ng/g |
| NS(=O)(=O)C(F)(F)C(F)(F)C(F)(F)C(F)(F)C(F)(F)C(F)(F)C(F)(F)C(F)(F)F [PFOSA] |  |  |  |  | WB conc. factor (lab / field) D 32 High [1, 8]: 85.9; WB conc. factor (lab / field) D 32 Low [1, 8]: 2.74; WB conc. factor (lab / field) D 32 Med [1, 8]: 4.15; WB conc. factor (lab / field) D 50 High [1, 9]: 55.9; WB conc. factor (lab / field) D 50 Med [1, 9]: 7.0; Max WB conc field Scul [3]: 2.2 ng/g; Uncoupling of mitochondrial respiration [4]: known uncouplers of mitochondrial respiration |
| O=S(=O)(O)C(F)(F)C(F)(F)C(F)(F)C(F)(F)C(F)(F)C(F)(F)C(F)(F)C(F)(F)F [PFOS] | 4.01 | 0.17 | 0.22 | 0.34 | Whole-body conc D 50 High [1]: 123 ng/g; Whole-body conc D 50 Med [1]: 11.6 ng/g; Half life High [2]: 134 days |
| CN[C@H]1CC[C@@H](c2ccc(Cl)c(Cl)c2)c2ccccc21 [Sertraline, reference compound] | 0.53 |  |  |  |  |
| O=C(Nc1ccc(Cl)cc1)Nc1ccc(Cl)c(Cl)c1 [Triclocarban] | 1.34 |  |  |  |  |
| Oc1cc(Cl)ccc1Oc1ccc(Cl)cc1Cl [Triclosan] |  |  |  |  | Uncoupling of mitochondrial respiration [4]: known uncouplers of mitochondrial respiration |
| CC1(C)C(C=C(Cl)Cl)C1C(=O)OC(C#N)c1cccc(Oc2ccccc2)c1 (centres unmarked) [cypermethrin] |  |  |  |  | Plasma enzymes ALT, AMYL, and acid phosphatase (carp): large reductions |
| nonylphenol |  |  |  |  | Growth in rainbow trout (rainbow trout): inhibited growth |
| nonylphenol diethoxylate |  |  |  |  | Growth in rainbow trout (rainbow trout): inhibited growth |
| octylphenol |  |  |  |  | Growth in rainbow trout (rainbow trout): inhibited growth |
